Patent US20240058344A1, “METHODS OF TREATING NEURODEGENERATIVE DISORDERS AND STAT3-LINKED CANCERS USING SUPPRESSORS OF ELECTRON LEAK” (Cornell University, priority 2020, published 2024)

Columns and labels:
[1] = test system: genes linked to neuroinflammation and glial reactivity; test: Microfluidic RT-qPCR panel of neuroinflammation-related genes in hippocampi of hTauP301S mice; format: in vivo; conditions: 10-month-old hTauP301S mice, six weeks oral dosing, vs vehicle
Description: Subset of neuroinflammatory markers measured by RT-qPCR in hippocampi of 10-month-old male nontransgenic (NTG) or hTauP301S mice after 6 weeks of oral dosing with 5 mg/kg/day S3QEL2, 10 mg/kg/day S1QEL1.1, or vehicle. […] Average fold-change vs NTG. n=3-5 mice per group.
Next, studies were conducted to test if S3QEL2 or SIQEL1.1 altered the expression of genes involved in neuroinflammation and glial reactivity in hTauP301S mice.

astrocytes = test: Oxygen consumption rates (mitochondrial respiration) in astrocytes; format: cell-based
Description: Oxygen consumption rates (OCR) and maximal consumption rates are shown for indicated S3QEL2 concentrations and time points. Antimycin and rotenone were used as positive controls to inhibit mitochondrial respiration. ***p<0.001 vs. vehicle, two-way repeated measures ANOVA with Dunnett's multiple comparisons test.

[2] = Solubility in aqueous solutions; format: physicochemical
A-172 glioblastoma cells = test: Glioblastoma cell proliferation, DAPI staining of cell nuclei, A-172; format: cell-based, human; conditions: 72 h
Description: Cell density was measured using DAPI staining of cell nuclei and quantification of fluorescence intensities. n=3 wells per condition. […] STAT3 levels were measured by Western blotting. STAT3 levels were normalized to γ-tubulin levels within each cell lysate and expressed as fold change relative to U-87MG cells. n=4 wells per condition. **p<0.01, ***p<0.001 vs. 0 μM or U-87MG, one-way ANOVA with Dunnett's multiple comparisons test.
Briefly, two complementary methods were used to assess cell proliferation, including the CellTiter-Glo assay and DAPI staining of cell nuclei. The effects of S3QEL2 treatment on A-172, T98G, and U-87 MG cells were measured at different drug concentrations (0, 6, 20, 30, 40, or 50 μM) and time-points after treatment (72 or 96 hours). S3QEL2 inhibits proliferation of A-172 and T98G glioblastoma cells in a highly dose-dependent manner and these effects are similar at different time-points (FIG. 15A-B).

[3] = Brain levels of compound after i.p. injection or oral consumption (pharmacokinetics); format: in vivo, mice
Description: (FIGS. 1A-B) Levels of S3QEL2 (FIG. 1A) and S1QEL1.1 (FIG. 1B) in the brain following a single i.p. injection or oral consumption (per oral, PO), which improved duration of exposure. n=3-6 wild-type mice per group. (FIGS. 1C-D) Body weights of male nontransgenic (NTG) or hTauP301S mice treated with S3QEL2 (FIG. 1C) (S3, 5 mg/kg/day, PO in almond butter), S1QEL1.1 (FIG. 1D) (10 mg/kg/day, PO in almond butter), or vehicle. (FIG. 1E) Levels of S3QEL2 in the mouse brain following almond butter (AB) or chow administration at indicated doses for 21 days. (n=15 mice per dose). n=3-15 wild-type mice per condition. (FIG. 1F) Body weight of 4-5-month-old wild-type male mice treated with formulated chow containing S3QEL2 at indicated doses and durations (n=15 mice per dose).
A series of pharmacokinetic and drug tolerance experiments with S3QEL2 in adult wild-type and transgenic hTauP301S mice was first performed. Different administration routes and drug formulations were tested. […] Chow that was formulated to deliver 0, 5, 15, or 30 mg/kg/day of S3QEL2 was also tested.

[4] = test system: GFAP; phospho-serine 202/205 tau; test: Immunofluorescent staining of GFAP and phospho-serine 202/205 tau (AT8) in hTauP301S mice; format: in vivo; conditions: 6 weeks oral dosing
Description: Immunofluorescent staining and quantification of astrocytic marker GFAP (red, FIG. 4A) and phospho-serine 202/205 tau (AT8, green, FIG. 4B) in male nontransgenic (NTG) and hTauP301S mice after 6 weeks of oral dosing with S3QEL2 or vehicle. (FIGS. 4C-4E) n=12-16 mice per group; *p<0.05, **p<0.01, ***p<0.001, ANOVA with Bonferroni's test.
As assessed by immunolabeling, hTauP301S mice treated with S3QEL2 also had reduced levels of glial fibrillary acidic protein (GFAP)-positive astrogliosis and phosphorylated tau (FIG. 7). Western blotting confirmed reduced levels of phosphorylated but not total tau in these mice (FIG. 5).

For `CCCN(CCC)c1ncnc2c1cnn2-c1ccc(C)c(C)c1` [S3QEL2], the “Expression of genes linked to neuroinflammation and glial reactivity” value [1] was “reduced expression of diverse genes linked to neuroinflammation and glial reactivity”, the “Mitochondrial respiration (oxygen consumption rates, OCR)” value (astrocytes) was “does not affect mitochondrial respiration” and the “Solubility in aqueous solutions” value [2] was “limited solubility in aqueous solutions”. The “Cell proliferation (cell density, DAPI staining)” value (A-172 glioblastoma cells) was “reduces proliferation”, the “Crossing of the blood-brain barrier (levels in the brain)” value ([3]; after peripheral administration, wild-type mice) was “readily crossed the blood-brain barrier” and the “Increase in the area under the curve of drug presence in the brain, oral intake as compared to i.p. injection” value ([3]; brain, oral vs intraperitoneal) was 6 fold. For the same compound, the “Chronic delivery to the brain by formulated chow” value ([3]; chow vs almond butter, 21 days, wild-type mice) was “equally effective in chronically delivering S3QEL2 to the brain”, the “GFAP-positive astrogliosis (immunolabeling)” value [4] was “reduced” and the “Phosphorylated tau (AT8 immunolabeling)” value [4] was “reduced”.
